Measured values published in patent publication US12497405B2, “Bicyclic heterocycle compounds methods of use thereof for the treatment of herpes viruses” (Merck Sharp & Dohme LLC, priority 2019, dated 2025).
Like-named read-outs stand apart in the source and are kept apart here.

How the values were obtained:
[1] = molecular target: Human cytomegalovirus DNA polymerase (Human cytomegalovirus (strain AD169) (HHV-5) (Human herpesvirus 5), UniProt P08546); experiment: CMV polymerase assay (AlphaLISA); format: biochemical; settings: HCMV polymerase 0.2 nM, 30 min pre-incubation, 60 minute at 37° C.
Protocol: (§1) Human cytomegalovirus and varicella zoster virus DNA polymerases were expressed via baculovirus vector in SF21 cells and purified. Heterodimeric nucleic acid substrate used in the herpesvirus polymerase reactions were generated by annealing a 59-mer template to a 17-mer digoxigenin-labeled primer. Polymerase (HCMV final concentration of 0.2 nM; VZV final concentration of 0.4 nM) was combined with an inhibitor compound or DMSO in assay buffer (10 mM HEPES, pH 7.5, 25 mM KCl, 25 mM NaCl, 5 mM MgCl2, 5% glycerol, 0.67 mg/ml bovine serum albumin, and 1 mM tris(2-carboxyethyl)phosphine)), and this mixture was pre-incubated for 30 minutes at room temperature in 384-well microtiter plates. The polymerization reaction was initiated by the addition of template/primer substrate (final concentration: 1.6 nM), and dNTPs (final concentration: 24 nM dCTP, 24 nMdGTP, 16 nM dATP, 16 nM dTTP, and 0.8 nM biotin-dUTP). After a 60 minute incubation period at 37° C., the reactions were terminated using quench buffer (25 mM HEPES pH 7.5, 100 mM NaCl, 0.25% Tween-20, 12 mM EDTA, and 1 mg/ml bovine serum albumin). Incorporation of biotinylated UTP was detected with 2.5-5 μg/mL anti-DIG AlphaLISA acceptor beads and 5-10 μg/mL streptavidin AlphaLISA donor beads (PerkinElmer). Compound effects were normalized to the window defined by the controls (DMSO only and pre-quenched wells), and were fit using a 4-parameter algorithm to report an IC50.

[2] = molecular target: varicella zoster virus DNA polymerase (Varicella-zoster virus (strain Dumas) (HHV-3) (Human herpesvirus 3), UniProt P09252); experiment: VZV polymerase assay (AlphaLISA); format: biochemical; settings: VZV polymerase 0.4 nM, 30 min pre-incubation, 60 minute at 37° C.
Protocol: as §1

CMV = experiment: Viral qPCR assay, CMV; format: cell-based; settings: infected cells, viral genome copies by qPCR normalized to PPIA, read-out: CMV Cell EC50
Protocol: (§2) MRC5 cells, Vero cells, and MeWo cells were obtained from ATCC, and were maintained at 37° C./5% CO2/90% relative humidity in Minimal Essential Medium with 10% fetal bovine serum, […] L-glutamine, 100 units/ml penicillin and 100 ug/ml streptomycin. Assay plates were prepared by dispensing compounds dissolved in DMSO into wells of 384 well collagen-coated plates using an ECHO acoustic dispenser. Each test compound was tested in a 10-point, serial 3-fold dilution. Controls included uninfected cells and infected cells treated only with DMSO. Assays were initiated by mixing selected cells, in suspension, with virus, and dispensing 50 μl/well infected cells to pre-plated compounds. Plates were incubated at 37° C./5% CO2/90% relative humidity for ˜72 hrs to permit genomic replication, and infected cells were lysed by the addition of an equal volume of lysis buffer (10 mM Tris-HCl, pH8, 50 mM KCl, 2 mM MgCl2, 0.45% NP-40, 0.45% Tween-20, and 100 µg/ml proteinase K). An aliquot of the lysate was then transferred to a 384-well PCR plate and incubated at 56° C. for 1 hour, and then at 95° C. for 10 minutes. Levels of the selected viral gene and of the cellular control, PPIA, were measured in separate 10 μl qPCR assays using TaqMan® Gene Expression Master Mix (Applied Biosystems), and an 7900HT Fast Real-Time PCR System with 384-Well Block Module. 7-point, serial 10-fold dilutions of a plasmid standard were run on each plate to generate a standard curve, and genome copies numbers were calculated by plotting experimental Ct onto linear regression of the standard curve. Viral genome copy numbers were normalized by cellular control copy number, and compound effects were normalized to the window defined by the controls. Calculated % effects were fit using a 4-parameter algorithm, and EC50 was reported.

HSV1 = experiment: Viral qPCR assay, HSV1; format: cell-based; settings: infected cells, viral genome copies by qPCR normalized to PPIA, read-out: HSV1 Cell EC50
Protocol: as §2

HSV2 = experiment: Viral qPCR assay, HSV2; format: cell-based; settings: infected cells, viral genome copies by qPCR normalized to PPIA, read-out: HSV2 Cell EC50
Protocol: as §2

O=C1OC[C@@H]2C[C@@H](Oc3cc4c(=O)n(Cc5ccc(Cl)cc5)cnc4nc3-c3cnco3)CCN12 [Example 7]
IC50 [1]: 4.6 nM | IC50 [2]: 9.2 nM | EC50 (CMV; ~72 hrs): 104 nM | EC50 (HSV1; ~72 hrs): 118 nM | EC50 (HSV2; ~72 hrs): 89 nM

COc1nc2cc(-c3cnco3)c(O[C@H]3CCN4C(=O)OC[C@@H]4C3)cc2c(=O)n1Cc1ccc(C#N)cc1 [Example 9]
IC50 [1]: 0.44 nM | IC50 [2]: 0.44 nM | EC50 (CMV; ~72 hrs): 35 nM | EC50 (HSV1; ~72 hrs): 20 nM | EC50 (HSV2; ~72 hrs): 13 nM

N#Cc1ccc(Cn2c(=O)[nH]c3cc(-c4cnco4)c(O[C@H]4CCN5C(=O)OC[C@@H]5C4)cc3c2=O)cc1 [Example 10]
IC50 [1]: 0.24 nM | IC50 [2]: 0.28 nM | EC50 (CMV; ~72 hrs): 70 nM | EC50 (HSV1; ~72 hrs): 109 nM | EC50 (HSV2; ~72 hrs): 68 nM

Cc1nc2cc(-c3ccn(C(F)F)n3)c(O[C@H]3CCN4C(=O)OC[C@@H]4C3)cc2c(=O)n1Cc1ccc(C#N)cc1 [Example 11]
IC50 [1]: 0.55 nM | IC50 [2]: 2.5 nM | EC50 (CMV; ~72 hrs): 54 nM | EC50 (HSV1; ~72 hrs): 51 nM | EC50 (HSV2; ~72 hrs): 35 nM

Cc1nc2cc(-c3cn(C(F)F)nn3)c(O[C@H]3CCN4C(=O)OC[C@@H]4C3)cc2c(=O)n1Cc1ccc(Cl)cc1 [Example 12]
IC50 [1]: 0.47 nM | IC50 [2]: 0.47 nM | EC50 (CMV; ~72 hrs): 112 nM | EC50 (HSV1; ~72 hrs): 73 nM | EC50 (HSV2; ~72 hrs): 61 nM

Cc1nc2cc(-c3ccn(C(F)F)n3)c(O[C@H]3CCN4C(=O)OC[C@@H]4C3)cc2c(=O)n1Cc1ccc(Cl)cc1 [Example 13]
IC50 [1]: 1 nM | IC50 [2]: 3.5 nM | EC50 (CMV; ~72 hrs): 49 nM | EC50 (HSV1; ~72 hrs): 37 nM | EC50 (HSV2; ~72 hrs): 38 nM

COc1ccc(-c2cc3nc(C)n(Cc4ccc(Cl)cc4)c(=O)c3cc2O[C@H]2CCN3C(=O)OC[C@@H]3C2)nn1 [Example 14]
IC50 [1]: 13 nM | IC50 [2]: 14 nM | EC50 (CMV; ~72 hrs): 280 nM | EC50 (HSV1; ~72 hrs): 374 nM | EC50 (HSV2; ~72 hrs): 268 nM

CC(=O)N1CCC(Oc2ccc3ccn(Cc4ccc(Cl)cc4)c(=O)c3c2)CC1 [Example 22]
IC50 [1]: 386 nM | IC50 [2]: 71 nM | EC50 (CMV; Human betaherpesvirus 5, 72 h): 4240 nM | EC50 (HSV1; Human alphaherpesvirus 1, 72 h): 5630 nM | EC50 (HSV2; Human alphaherpesvirus 2, 72 h): 4280 nM

O=C1OC[C@@H]2C[C@@H](Oc3ccc4ccn(Cc5ccc(Cl)cc5)c(=O)c4c3)CCN12 [Example 23]
IC50 [1]: 40 nM | IC50 [2]: 26 nM | EC50 (CMV; Human betaherpesvirus 5, 72 h): 482 nM | EC50 (HSV1; Human alphaherpesvirus 1, 72 h): 1320 nM | EC50 (HSV2; Human alphaherpesvirus 2, 72 h): 961 nM

O=C1OC[C@@H]2C[C@@H](Oc3ccc4ncn(Cc5ccc(Cl)cc5)c(=O)c4c3)CCN12 [Example 24]
IC50 [1]: 27 nM | IC50 [2]: 35 nM | EC50 (CMV; Human betaherpesvirus 5, 72 h): 216 nM | EC50 (HSV1; Human alphaherpesvirus 1, 72 h): 501 nM | EC50 (HSV2; Human alphaherpesvirus 2, 72 h): 342 nM

O=C1OC[C@@H]2C[C@@H](Oc3cnc4ccn(Cc5ccc(Cl)cc5)c(=O)c4c3)CCN12 [Example 25]
IC50 [1]: 76 nM | IC50 [2]: 55 nM | EC50 (CMV; Human betaherpesvirus 5, 72 h): 569 nM | EC50 (HSV1; Human alphaherpesvirus 1, 72 h): 1310 nM | EC50 (HSV2; Human alphaherpesvirus 2, 72 h): 730 nM

Cc1cc2ccn(Cc3ccc(Cl)cc3)c(=O)c2cc1O[C@H]1CCN2C(=O)OC[C@@H]2C1 [Example 26]
IC50 [1]: 13 nM | IC50 [2]: 18 nM | EC50 (CMV; Human betaherpesvirus 5, 72 h): 298 nM | EC50 (HSV1; Human alphaherpesvirus 1, 72 h): 673 nM | EC50 (HSV2; Human alphaherpesvirus 2, 72 h): 356 nM

O=C1OC[C@@H]2C[C@@H](Oc3cc4c(=O)n(Cc5ccc(Cl)cc5)ccc4cc3-c3cnn(C(F)F)c3)CCN12 [Example 27]
IC50 [1]: 5.3 nM | IC50 [2]: 5.9 nM | EC50 (CMV; Human betaherpesvirus 5, 72 h): 114 nM | EC50 (HSV1; Human alphaherpesvirus 1, 72 h): 124 nM | EC50 (HSV2; Human alphaherpesvirus 2, 72 h): 59 nM

O=C1OC[C@@H]2C[C@@H](Oc3cnc4ncn(Cc5ccc(Cl)cc5)c(=O)c4c3)CCN12 [Example 28]
IC50 [1]: 48 nM | IC50 [2]: 60 nM | EC50 (CMV; Human betaherpesvirus 5, 72 h): 500 nM | EC50 (HSV1; Human alphaherpesvirus 1, 72 h): 1250 nM | EC50 (HSV2; Human alphaherpesvirus 2, 72 h): 884 nM
